Data: patent US20220118124A1, “R[…]-LABELED, PHOTO-CRO[…], AND PREPARATION METHOD THEREFOR” (SNVIA CO., LTD., priority 2019, published 2022)

Assay: In vivo local retention experiment of ^131I-HAMA microgel (SPECT gamma imaging after injection into femoral muscle)
Settings: rat
Experimental: An experiment was performed to confirm the distribution of ^131I and how long the ^131I-HAMA microgel was maintained at the site injected into the body. After injecting 0.2 mL of a solution of Na^131I and ^131I-HAMA microgel (1 mCi/mL) dispersed in PBS into the femoral muscle of the rat, gamma images were obtained over time with the SPECT imaging system (Infinia Hawkeye 4, GE Healthcare, USA). Within 30 minutes immediately after injection, the radioactivity at the injection site was measured with a counter per second in a dynamic mode. After 30 minutes, an image of the whole rat injected with ^131I over time was obtained in static mode, and gamma counters of major tissues such as the injection site, thyroid gland and stomach were measured.

Structure (SMILES): [131I-].[Na+] [^131I solution, Na^131I]
- radiation intensity over time in vivo (after injection into femoral muscle): decreased rapidly
- time to flow to the whole body (SPECT image) (intramuscular injection, 200 μCi): 30 min
- spreading rate in the body from the injection site (dynamic imaging) (within 30 minutes after injection): faster than that of the ^131I-HAMA microgel
- migration of ^131I to other tissues (gamma counts) (injection site, thyroid gland, stomach, bladder): measured in the thyroid gland, stomach, and bladder in addition to the injection site
